Converted amounts (≈) assume the structure as drawn. The source made the active and inactive calls. No cut-off for these calls is given here.
What was measured:
Staphylococcus aureus [1] = assay: Antibacterial activity against methicillin-susceptible Staphylococcus aureus ATCC 25923 by microdilution method; format: functional
Staphylococcus aureus [2] = assay: Antibacterial activity against methicillin-resistant Staphylococcus aureus ATCC 33591 by microdilution method; format: functional
[3] = system: Staphylococcus epidermidis; assay: Antibacterial activity against Staphylococcus epidermidis ATCC 12228 by microdilution method; format: functional, organism-based
Enterococcus faecalis = assay: Antibacterial activity against Enterococcus faecalis ATCC 51299 by microdilution method; format: functional
Escherichia coli = assay: Antibacterial activity against Escherichia coli ATCC 25922 by microdilution method; format: functional, organism-based
Bacteria [4] = assay: Inhibition of bacterial RecA expressed in Escherichia coli ATCC 25922 assessed as decrease in SOS induction at 50 uM after 8 hrs in presence of 0.25 times MIC of ciprofloxacin by fluorescence assay relative to control
Bacteria [5] = assay: Inhibition of bacterial RecA expressed in Escherichia coli ATCC 25922 harboring GyrA Ser83Leu mutant assessed as decrease in SOS induction at 50 uM after 8 hrs in presence of 0.25 times MIC of ciprofloxacin by fluorescence assay relative to control
Bacteria [6] = assay: Inhibition of bacterial RecA expressed in Escherichia coli ATCC 25922 harboring GyrA Ser83Leu mutant/ParC Ser80Arg mutant assessed as decrease in SOS induction at 50 uM after 8 hrs in presence of 0.25 times MIC of ciprofloxacin by fluorescence assay relative to control
Bacteria [7] = assay: (§1) Inhibition of bacterial RecA expressed in Escherichia coli ATCC 25922 harboring GyrA Ser83Leu mutant/ParC Ser80Arg mutant/GyrA Asp87Asn mutant assessed as decrease in SOS induction at 50 uM after 8 hrs in presence of 0.25 times MIC of ciprofloxacin by fluorescence assay relative to control
Bacteria [8] = assay: as §1, with “Asp87Asn mutant/marR deletion” for “Asp87Asn”
Staphylococcus aureus [9] = assay: Antibacterial activity against methicillin-resistant Staphylococcus aureus ATCC 33591 assessed as decrease in levels of viable bacteria at 2 times MIC after 4 hrs by time-kill assay; format: functional
Staphylococcus aureus [10] = assay: Antibacterial activity against methicillin-resistant Staphylococcus aureus ATCC 33591 assessed as decrease in levels of viable bacteria at 2 times MIC after 8 hrs by time-kill assay; format: functional
Staphylococcus aureus [11] = assay: Antibacterial activity against methicillin-resistant Staphylococcus aureus ATCC 33591 assessed as decrease in levels of viable bacteria at 2 times MIC after 24 hrs by time-kill assay; format: functional
Staphylococcus aureus [12] = assay: Antibacterial activity against methicillin-resistant Staphylococcus aureus ATCC 33591 assessed as growth inhibition after 48 hrs; format: functional, organism-based

SMILES	MIC (Staphylococcus aureus [1])	MIC (Staphylococcus aureus [2])	Activity [3]	Activity (Enterococcus faecalis)	Activity (Escherichia coli)	MIC (Enterococcus faecalis)	inhibition (Bacteria [4])	inhibition (Bacteria [5])	inhibition (Bacteria [6])	inhibition (Bacteria [7])	inhibition (Bacteria [8])	Activity (Staphylococcus aureus [9])	Activity (Staphylococcus aureus [10])	Activity (Staphylococcus aureus [11])	growth inhibition (GI) (Staphylococcus aureus [12])
NNc1ccc(S(=O)(=O)N2CCOCC2)cc1[N+](=O)[O-]	16 to 128 µg/mL (≈ 52.9 to 423 µM)	16 to 128 µg/mL (≈ 52.9 to 423 µM)	Active	Active	inactive										
COc1cc(C(=O)OCCCn2c(=O)c3c(nc(N4CCN(CCO)CC4)n3C)n(C)c2=O)cc(O)c1OC	16 to 128 µg/mL (≈ 29.3 to 234 µM)	16 to 128 µg/mL (≈ 29.3 to 234 µM)	Active	Active	inactive										
COCCOC(=O)C1=C(C)OC(N)=C(C#N)C12C(=O)N(CC(=O)OC)c1ccccc12 (configuration not stated)	16 to 128 µg/mL (≈ 37.4 to 299 µM)	16 to 128 µg/mL (≈ 37.4 to 299 µM)	Active		inactive	32 to 128 µg/mL (≈ 74.9 to 299 µM)									
O=C(O)CSc1cc(NS(=O)(=O)c2ccc(Cl)cc2)c2ccccc2c1O	16 to 128 µg/mL (≈ 37.7 to 302 µM)	16 to 128 µg/mL (≈ 37.7 to 302 µM)			Active		31 to 47%	31 to 47%	31 to 47%	31 to 47%	31 to 47%				
COc1cc(C(=O)OCCn2c(N3CCN(CCO)CC3)nc3c2c(=O)n(C)c(=O)n3C)cc(OC)c1OC	16 to 128 µg/mL (≈ 29.3 to 234 µM)	16 to 128 µg/mL (≈ 29.3 to 234 µM)	Active		inactive	32 to 128 µg/mL (≈ 58.5 to 234 µM)									
CCN(CC)CCN1C(=O)C(O)=C(C(=O)c2ccc(OC)cc2)C1c1ccc(C)o1 (configuration not stated)	16 to 128 µg/mL (≈ 38.8 to 310 µM)	16 to 128 µg/mL (≈ 38.8 to 310 µM)	Active	inactive	inactive							1.5 deltalog10CFU/ml	2.5 deltalog10CFU/ml	4 deltalog10CFU/ml	Dose-dependent effect
O=C(CCN1CCOCC1)NNC(=O)c1ccc([N+](=O)[O-])cc1[N+](=O)[O-]	16 to 128 µg/mL (≈ 43.6 to 348 µM)	16 to 128 µg/mL (≈ 43.6 to 348 µM)	Active		inactive	32 to 128 µg/mL (≈ 87.1 to 348 µM)									
